Earlier results as cited in US11058615B1, “Cosmetic dermal serum with skin rejuvenation properties” (Key Element LLC, priority 2018, dated 2021).

Tests used:
skin blemishes = conditions: recent clinical studies (ncbi.nlm.nih.gov/pubmed/18492184)
hyperpigmentation = hyperpigmentation caused by exposure to UVA and UVB

O=C1O[C@H]([C@@H](O)CO)C([O-])=C1OP(=O)([O-])[O-].[Na+].[Na+].[Na+] [SAP, Sodium Ascorbyl Phosphate]
efficacy to fight skin blemishes (skin blemishes): significant efficacy
efficacy in helping to normalize skin tone (hyperpigmentation): excellent efficacy
